From patent US20250313535A1, “ALPHA 4 BETA 7 INTEGRIN MODULATORS AND USES THEREOF” (DICE MOLECULES SV, INC., priority 2022, published 2025) come the findings set out here.

A word on the pIC50: it is the IC50 on a negative log10 scale, so that one unit is a factor of ten.

One experiment deals with α4β7 integrin (Homo sapiens (Human), UniProt P13612+P26010). Put plainly: Integrin Adhesion Assay: Protocol 1 (MAdCAM-coated plate, RPMI-8866 cells, CellTiter GLO readout). The experiment is classed as cell-based. The note with it: integrin adhesion assay; determined by at least one of the assays described (protocol not specified). Put shortly:
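RPMI-8866 cells (2×10^6 per mL) added with compounds (1% DMSO) to MAdCAM-coated wells blocked in HEPES/NaCl buffer with 1 mM MnCl2, 0.1 mM CaCl2, 1% BSA; 1 h at 37° C, 5% CO2. After four washes, bound cells read by CellTiter GLO luminescence; % inhibition vs DMSO and control wells, 4-parameter fit.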
In general terms: Cellular ATP, detected with luciferase, serves as a proxy for viable cell number.

A further experiment concerns the target α4β1 integrin (Homo sapiens (Human), UniProt P05556+P13612). The experiment can be described thus: Integrin Adhesion Assay: Protocol 2 (VCAM-coated plate, Jurkat cells, CellTiter GLO readout). Conditions: determined by at least one of the assays described (protocol not specified). The format is cell-based. Put shortly: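 Jurkat cells (2×10^6 per mL) adhered to VCAM-coated (0.1 ug/well), BSA-blocked wells with compound (1% DMSO) for 1 h at 37° C in 10 mM HEPES, 150 mM NaCl, 1 mM MnCl2, 0.1 mM CaCl2. After four washes, bound cells were quantified by CellTiter-Glo luminescence. Percent inhibition versus DMSO and control-compound wells was fitted to a 4-parameter curve.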

pIC50: −log10 of the molar value.

α4β7 integrin, sequence (P13612 34-1032): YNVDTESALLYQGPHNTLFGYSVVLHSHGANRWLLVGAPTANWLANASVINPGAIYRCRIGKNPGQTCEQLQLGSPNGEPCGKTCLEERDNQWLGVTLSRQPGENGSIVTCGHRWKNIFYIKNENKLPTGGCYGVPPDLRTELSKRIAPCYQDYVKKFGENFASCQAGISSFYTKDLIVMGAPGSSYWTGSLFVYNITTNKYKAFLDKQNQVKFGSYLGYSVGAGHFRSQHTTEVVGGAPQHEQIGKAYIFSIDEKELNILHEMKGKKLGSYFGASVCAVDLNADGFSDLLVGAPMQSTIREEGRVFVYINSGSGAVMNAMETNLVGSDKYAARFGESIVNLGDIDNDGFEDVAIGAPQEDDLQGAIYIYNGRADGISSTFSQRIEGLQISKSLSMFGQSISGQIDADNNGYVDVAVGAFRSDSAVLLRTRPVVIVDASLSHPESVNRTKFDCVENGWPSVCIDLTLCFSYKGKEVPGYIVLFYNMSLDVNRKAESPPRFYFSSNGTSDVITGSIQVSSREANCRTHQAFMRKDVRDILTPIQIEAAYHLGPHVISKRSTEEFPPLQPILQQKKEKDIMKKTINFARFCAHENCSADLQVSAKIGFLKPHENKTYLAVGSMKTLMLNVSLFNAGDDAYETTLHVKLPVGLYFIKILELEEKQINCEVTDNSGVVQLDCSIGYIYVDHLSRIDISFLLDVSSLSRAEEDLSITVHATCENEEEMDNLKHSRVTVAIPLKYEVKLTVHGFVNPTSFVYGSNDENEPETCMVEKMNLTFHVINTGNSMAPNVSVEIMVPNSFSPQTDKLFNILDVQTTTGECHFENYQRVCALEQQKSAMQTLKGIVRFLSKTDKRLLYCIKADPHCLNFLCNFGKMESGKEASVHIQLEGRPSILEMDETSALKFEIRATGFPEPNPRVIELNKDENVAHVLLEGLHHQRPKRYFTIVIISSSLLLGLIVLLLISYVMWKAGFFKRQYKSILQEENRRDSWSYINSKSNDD
α4β7 integrin, sequence (P26010 20-798): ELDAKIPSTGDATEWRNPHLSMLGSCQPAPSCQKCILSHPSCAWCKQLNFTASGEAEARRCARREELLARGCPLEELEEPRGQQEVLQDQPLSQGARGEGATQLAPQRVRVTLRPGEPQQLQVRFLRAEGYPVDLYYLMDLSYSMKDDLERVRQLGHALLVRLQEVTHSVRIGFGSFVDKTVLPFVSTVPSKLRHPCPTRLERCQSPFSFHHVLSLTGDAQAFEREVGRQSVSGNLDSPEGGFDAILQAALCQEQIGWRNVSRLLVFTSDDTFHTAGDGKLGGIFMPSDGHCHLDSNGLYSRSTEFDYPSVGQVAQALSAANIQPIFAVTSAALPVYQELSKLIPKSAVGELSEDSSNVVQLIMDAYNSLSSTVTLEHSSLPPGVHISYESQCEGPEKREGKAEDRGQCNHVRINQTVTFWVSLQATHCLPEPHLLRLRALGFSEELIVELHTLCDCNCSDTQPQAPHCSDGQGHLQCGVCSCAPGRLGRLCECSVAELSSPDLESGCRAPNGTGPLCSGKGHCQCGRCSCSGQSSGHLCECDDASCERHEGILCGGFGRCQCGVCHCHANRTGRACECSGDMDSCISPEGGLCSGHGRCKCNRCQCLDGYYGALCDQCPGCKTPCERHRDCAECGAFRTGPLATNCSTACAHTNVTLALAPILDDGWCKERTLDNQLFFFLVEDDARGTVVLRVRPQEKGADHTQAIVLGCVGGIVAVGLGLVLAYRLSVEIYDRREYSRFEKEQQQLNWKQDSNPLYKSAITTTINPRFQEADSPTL
α4β1 integrin, sequence (P13612 34-1032): as the sequence (P13612 34-1032) above
α4β1 integrin, sequence (P05556 21-798): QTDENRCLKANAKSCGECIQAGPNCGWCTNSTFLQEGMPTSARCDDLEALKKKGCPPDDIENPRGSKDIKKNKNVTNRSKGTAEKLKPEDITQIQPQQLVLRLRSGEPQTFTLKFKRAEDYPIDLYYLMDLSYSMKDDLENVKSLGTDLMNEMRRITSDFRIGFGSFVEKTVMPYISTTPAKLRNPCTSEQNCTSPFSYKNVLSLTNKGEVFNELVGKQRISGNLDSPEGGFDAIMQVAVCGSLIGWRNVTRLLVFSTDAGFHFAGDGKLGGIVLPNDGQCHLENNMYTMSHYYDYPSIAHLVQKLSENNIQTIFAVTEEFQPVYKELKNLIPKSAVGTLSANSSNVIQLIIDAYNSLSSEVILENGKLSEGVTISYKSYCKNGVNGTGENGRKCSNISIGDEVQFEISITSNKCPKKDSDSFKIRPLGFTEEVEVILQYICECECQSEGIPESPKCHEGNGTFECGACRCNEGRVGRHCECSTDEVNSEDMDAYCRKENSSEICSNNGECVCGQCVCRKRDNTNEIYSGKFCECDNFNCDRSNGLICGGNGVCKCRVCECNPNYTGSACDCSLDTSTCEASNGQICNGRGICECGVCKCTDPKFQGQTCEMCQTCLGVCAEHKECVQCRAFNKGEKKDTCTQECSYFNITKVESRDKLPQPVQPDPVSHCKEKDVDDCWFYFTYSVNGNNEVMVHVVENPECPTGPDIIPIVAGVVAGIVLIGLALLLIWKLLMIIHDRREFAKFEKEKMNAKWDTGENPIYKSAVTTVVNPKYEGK

With `Cn1ccc(=O)n(-c2cccc3c(C[C@H](NC(=O)[C@@H]4[C@@H]5CC[C@H]4CN(CC(F)(F)F)C5)C(=O)O)cccc23)c1=O` [Compound 155], the pIC50 at α4β7 integrin and at α4β1 integrin was under 6.00 throughout.

`Cn1ccc(=O)n(-c2cccc3c(C[C@H](NC(=O)C4C(C)(C)CN(CC(F)(F)F)CC4(C)C)C(=O)O)cccc23)c1=O` [Compound 156]: the pIC50 against α4β7 integrin was 6.00 to 7.00; against α4β1 integrin it was under 6.00.

With `Cn1ccc(=O)n(-c2cccc3c(C[C@H](NC(=O)[C@@]4(C)CCCN(CC(F)(F)F)CC4)C(=O)O)cccc23)c1=O` [Compound 157], the pIC50 against α4β7 integrin is 7.00 to 8.00; against α4β1 integrin, under 6.00.

As for `Cn1ccc(=O)n(-c2cccc3c(C[C@H](NC(=O)[C@@]4(C)CCCN(CC(F)(F)F)CC4)C(=O)O)cccc23)c1=O` [Compound 158], the pIC50 was 6.00 to 7.00 against α4β7 integrin and under 6.00 on α4β1 integrin.

Turning to `COCCN1CCC(C)(C(=O)N[C@@H](Cc2cccc3c(-n4c(=O)ccn(C)c4=O)cccc23)C(=O)O)CC1` [Compound 159], the pIC50 at α4β7 integrin is 6.00 to 7.00; at α4β1 integrin, under 6.00.

As to `CCN1CCC(C)(C(=O)N[C@@H](Cc2cccc3c(-n4c(=O)ccn(C)c4=O)cccc23)C(=O)O)CC1` [Compound 160], the pIC50 at α4β7 integrin is 7.00 to 8.00; on α4β1 integrin it was under 6.00.

`Cn1ccc(=O)n(-c2cccc3c(C[C@H](NC(=O)C4(C)CCCCC4)C(=O)O)cccc23)c1=O` [Compound 161]: the values for the pIC50 on α4β7 integrin and on α4β1 integrin were 6.00 to 7.00 and under 6.00, respectively.

For `Cn1ccc(=O)n(-c2cccc3c(C[C@H](NC(=O)C4(C)CCC(C)(C)CC4)C(=O)O)cccc23)c1=O` [Compound 162], the values for the pIC50 at α4β7 integrin and against α4β1 integrin were 6.00 to 7.00 and under 6.00, respectively.

In the case of `Cn1ccc(=O)n(-c2cccc3c(C[C@H](NC(=O)C4(C#N)CCN(CC(F)(F)F)CC4)C(=O)O)cccc23)c1=O` [Compound 163], the pIC50 was 7.00 to 8.00 on α4β7 integrin and under 6.00 on α4β1 integrin.

Take `Cn1ccc(=O)n(-c2cccc3c(C[C@H](NC(=O)C4(F)CCN(CC(F)(F)F)CC4)C(=O)O)cccc23)c1=O` [Compound 164]: the pIC50 on α4β7 integrin and against α4β1 integrin was under 6.00 throughout.

With `Cn1ccc(=O)n(-c2cccc3c(C[C@H](NC(=O)C45CCC(C(F)(F)F)(CC4)CC5)C(=O)O)cccc23)c1=O` [Compound 165], the figures for the pIC50 on α4β7 integrin and on α4β1 integrin were 6.00 to 7.00 and under 6.00, respectively.

For `Cn1ccc(=O)n(-c2cccc3c(C[C@H](NC(=O)[C@@H]4C[C@H]5CC[C@@H](C4)N5CC(F)(F)F)C(=O)O)cccc23)c1=O` [Compound 166], the pIC50 on α4β7 integrin and at α4β1 integrin was under 6.00 each time.

With `Cn1ccc(=O)n(-c2cccc3c(C[C@H](NC(=O)c4c(F)cccc4CN4CCOCC4)C(=O)O)cccc23)c1=O` [Compound 167], the pIC50 was over 8.00 against α4β7 integrin and 6.00 to 7.00 at α4β1 integrin.

Regarding `COC(=O)[C@H](Cc1cccc2c(-n3c(=O)ccn(C)c3=O)cccc12)NC(=O)c1c(F)cccc1CN1CCOCC1` [Compound 168], the pIC50 is 6.00 to 7.00 against α4β7 integrin and under 6.00 at α4β1 integrin.

On to `Cn1c(CCN2CC(F)C2)cc(=O)n(-c2cccc3c(C[C@H](NC(=O)c4c(F)cc(N5CCOC[C@@H]5C(F)(F)F)cc4F)C(=O)O)cccc23)c1=O` [Compound 169], for which the pIC50 on α4β7 integrin is over 8.00; against α4β1 integrin, under 6.00.

For the molecule `Cn1ccc(=O)n(-c2cccc3c(C[C@H](NC(=O)c4c(F)cc(N5CCOC[C@H]5C(F)(F)F)cc4F)C(=O)O)cccc23)c1=O` [Compound 170], the pIC50 on α4β7 integrin was 7.00 to 8.00; on α4β1 integrin it was under 6.00.

Consider `CCOCc1cc(OC)c(-c2cccc3c(C[C@H](NC(=O)c4c(F)cc(N5CCOC[C@@H]5C(F)(F)F)cc4F)C(=O)O)cccc23)c(OC)c1` [Compound 171], for which the pIC50 against α4β7 integrin was over 8.00; against α4β1 integrin it was 6.00 to 7.00.

Turning to `CCOCc1cc(OC)c(-c2cccc3c(C[C@H](NC(=O)c4c(F)cccc4F)C(=O)O)cccc23)c(OC)c1` [Compound 172], the pIC50 is 7.00 to 8.00 against α4β7 integrin and 6.00 to 7.00 against α4β1 integrin.

For `Cn1ccc(=O)n(-c2cccc3c(C[C@H](NC(=O)C(C)(C)c4cccc(-c5ccccc5)c4)C(=O)O)cccc23)c1=O` [Compound 176], the negative logarithm of the IC50 (pIC50) is 6.00 to 7.00 at α4β7 integrin and under 6.00 on α4β1 integrin.

Turning to `Cn1ccc(=O)n(-c2cccc3c(C[C@H](NC(=O)C(C)(C)CSc4cccc(C(F)(F)F)c4)C(=O)O)cccc23)c1=O` [Compound 177], the pIC50 at α4β7 integrin and at α4β1 integrin was under 6.00 throughout.

`Cn1ccc(=O)n(-c2cccc3c(C[C@H](NC(=O)C(C)(C)c4ccc(Oc5ccccc5)cc4)C(=O)O)cccc23)c1=O` [Compound 178]: the pIC50 at α4β7 integrin and against α4β1 integrin was under 6.00 in each case.

Consider `Cc1ccccc1-c1cccc(C(F)(F)C(=O)N[C@@H](Cc2cccc3c(-n4c(=O)ccn(C)c4=O)cccc23)C(=O)O)c1` [Compound 179], for which the pIC50 at α4β7 integrin and at α4β1 integrin was under 6.00 throughout.

As to `Cn1ccc(C(F)(F)F)c(-c2nccc3c(C[C@H](NC(=O)c4c(F)cccc4F)C(=O)O)cccc23)c1=O` [Compound 210], the pIC50 against α4β7 integrin was over 8.00; against α4β1 integrin it was under 6.00.

Turning to `Cn1ccc(C(F)(F)F)c(-c2nccc3c(C[C@H](NC(=O)c4c(F)cc5nc(CC(F)(F)F)[nH]c5c4F)C(=O)O)cccc23)c1=O` [Compound 213], the pIC50 against α4β7 integrin is 7.00 to 8.00; at α4β1 integrin, under 6.00.

Take `Cn1ccc(C(F)(F)F)c(-c2nccc3c(C[C@H](NC(=O)c4c(F)cc(N5CCOC[C@@H]5C(F)(F)F)cc4F)C(=O)O)cccc23)c1=O` [Compound 214]: the pIC50 at α4β7 integrin is over 8.00; at α4β1 integrin, under 6.00.

On to `Cc1cc(N2CCOC[C@@H]2C(F)(F)F)cc(F)c1C(=O)N[C@@H](Cc1cccc2c(-c3c(C(F)(F)F)ccn(C)c3=O)nccc12)C(=O)O` [Compound 215], for which the pIC50 against α4β7 integrin was over 8.00; on α4β1 integrin, under 6.00.

With `C[C@H]1COCCN1c1cc(F)c(C(=O)N[C@@H](Cc2cccc3c(-c4c(C(F)(F)F)ccn(C)c4=O)nccc23)C(=O)O)c(F)c1` [Compound 216], the pIC50 against α4β7 integrin is 7.00 to 8.00; on α4β1 integrin, under 6.00.

As for `Cn1ccc(C(F)(F)F)c(-c2nccc3c(C[C@H](NC(=O)c4c(F)cc(N5CCOCC56CC6)cc4F)C(=O)O)cccc23)c1=O` [Compound 217], the pIC50 is over 8.00 against α4β7 integrin and under 6.00 on α4β1 integrin.

With `Cn1ccc(C(F)(F)F)c(-c2nccc3c(C[C@H](NC(=O)c4c(F)cc(N5CCOC[C@H]5C(F)(F)F)cc4F)C(=O)O)cccc23)c1=O` [Compound 218], the values for the pIC50 against α4β7 integrin and on α4β1 integrin were 7.00 to 8.00 and under 6.00, respectively.

`O=C(N[C@@H](Cc1cccc2c(-c3cccc4ccncc34)nccc12)C(=O)O)c1c(F)cc(N2CCOC[C@@H]2C(F)(F)F)cc1F` [Compound 220]: the pIC50 was 7.00 to 8.00 against α4β7 integrin and under 6.00 against α4β1 integrin.

Turning to `O=C(N[C@@H](Cc1cccc2c(-c3cccc4ccncc34)nccc12)C(=O)O)c1c(F)cc(N(CC(F)(F)F)CC(F)(F)F)cc1CN1CCCC1` [Compound 222], the results for the pIC50 against α4β7 integrin and against α4β1 integrin were over 8.00 and under 6.00, respectively.

Regarding `O=C(N[C@@H](Cc1cccc2c(-c3cccc4ccncc34)nccc12)C(=O)O)c1c(F)cc(CN2CCOCC2)cc1F` [Compound 223], the pIC50 at α4β7 integrin and against α4β1 integrin was under 6.00 throughout.

Consider `Cn1ccc(C(F)(F)F)c(-c2nccc3c(C[C@H](NC(=O)c4c(Cl)cc(N5CCOC[C@@H]5C(F)(F)F)cc4CN4CCC(F)(F)CC4)C(=O)O)cccc23)c1=O` [Compound 224], for which the pIC50 was 7.00 to 8.00 at α4β7 integrin and under 6.00 against α4β1 integrin.
